# Measurements: ChEMBL document CHEMBL4602626, “Structure activity relationship, 6-modified purine riboside analogues to activate hSTING, stimulator of interferon genes” (Bioorg Med Chem Lett, 2020)
# The source made the active and inactive calls. The calls are words filed in the database; no cut-off is given here.
# Target: Stimulator of interferon genes protein (Homo sapiens) (UniProt Q86WV6)
# Test: Activation of human STING expressed in monocytes co-expressing IFN assessed as alkaline phosphatase secretion by SEAP reporter gene assay
# Format: cell-based
# Chain of Stimulator of interferon genes protein (Homo sapiens) (Q86WV6 whole entry): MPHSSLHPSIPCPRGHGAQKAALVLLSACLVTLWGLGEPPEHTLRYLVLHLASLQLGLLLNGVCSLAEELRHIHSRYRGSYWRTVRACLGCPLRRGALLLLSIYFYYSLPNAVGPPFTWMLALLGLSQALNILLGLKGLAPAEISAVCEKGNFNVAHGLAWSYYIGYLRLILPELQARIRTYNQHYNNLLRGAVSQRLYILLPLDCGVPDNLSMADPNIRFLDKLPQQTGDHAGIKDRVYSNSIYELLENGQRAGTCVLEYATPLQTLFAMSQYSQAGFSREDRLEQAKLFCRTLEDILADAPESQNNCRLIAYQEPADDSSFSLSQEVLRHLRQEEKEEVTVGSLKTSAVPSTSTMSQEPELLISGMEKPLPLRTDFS
row,SMILES,Activity
1,CCOc1ncnc2c1ncn2[C@H]1C[C@H](O)[C@@H](CO)O1,inactive
2,CC(C)CNc1ncnc2c1ncn2[C@@H]1O[C@H](CO)[C@@H](O)[C@H]1O,Active
3,CCCCC(=O)OC[C@H]1O[C@@H](n2cnc3c(OCC)ncnc32)[C@H](OC(=O)CCCC)[C@@H]1OC(=O)CCCC,Active
4,CN(C)/C=N/c1nc2c(ncn2[C@@H]2O[C@H](CO)[C@@H](O)[C@H]2O)c(=O)[nH]1,inactive
5,CN(C)/C=N/c1ccn([C@@H]2O[C@H](CO)[C@@H](O)[C@H]2O)c(=O)n1,inactive
6,CCOc1nc(N)nc2c1ncn2[C@@H]1O[C@H](CO)[C@@H](O)[C@H]1O,inactive
7,CCOc1ncnc2c1ncn2[C@@H]1O[C@H](COC(=O)[C@@H](N)C(C)C)[C@@H](O)[C@H]1O,Active
8,CCOc1ncnc2c1ncn2[C@@H]1O[C@H](COP(=O)(N[C@@H](C)C(=O)OC(C)C)Oc2ccccc2)[C@@H](O)[C@H]1O (some centres undefined),Active
9,CCCCC(=O)OC[C@H]1O[C@@H](n2cnc3c(OCC)ncnc32)[C@H](O)[C@@H]1O,Active
10,COCCNc1ncnc2c1ncn2[C@@H]1O[C@H](CO)[C@@H](O)[C@H]1O,Active
11,CN(C)/C=N/c1ncnc2c1ncn2[C@H]1C[C@H](O)[C@@H](CO)O1,inactive
12,CCOc1ncnc2[nH]cnc12,inactive
13,OC[C@H]1O[C@@H](n2cnc3c(NCc4ccc(-c5ccccc5)cc4)ncnc32)[C@H](O)[C@@H]1O,Active
14,CN(C)/C=N/c1ncnc2[nH]cnc12,inactive
15,CCOc1ncnc2c1ncn2[C@@H]1O[C@H](COC(=O)C(C)C)[C@@H](OC(=O)C(C)C)[C@H]1OC(=O)C(C)C,Active
16,CN(C)CCNc1ncnc2c1ncn2[C@@H]1O[C@H](CO)[C@@H](O)[C@H]1O,Active
17,OC[C@H]1O[C@@H](n2cnc3c(NCc4ccccc4)ncnc32)[C@H](O)[C@@H]1O,Active

# The remaining lines, values ahead:
row,Activity,SMILES
1,inactive,OC[C@H]1O[C@@H](n2cnc3c(OCc4ccccc4)ncnc32)[C@H](O)[C@@H]1O
2,inactive,COc1ncnc2c1ncn2[C@@H]1O[C@H](CCl)[C@@H](O)[C@H]1O
3,inactive,CC(C)Oc1ncnc2c1ncn2[C@@H]1O[C@H](CO)[C@@H](O)[C@H]1O
4,Active,OC[C@H]1O[C@@H](n2cnc3c(OCC(F)F)ncnc32)[C@H](O)[C@@H]1O
5,Active,CCOc1ncnc2c1ncn2[C@@H]1O[C@H](CO)[C@@H](O)[C@H]1O
6,Active,CCCOc1ncnc2c1ncn2[C@@H]1O[C@H](CO)[C@@H](O)[C@H]1O
7,Active,C=CCNc1ncnc2c1ncn2[C@@H]1O[C@H](CO)[C@@H](O)[C@H]1O
8,Active,CN(C)/C=N/c1ncnc2c1ncn2[C@@H]1O[C@H](CO)[C@@H](O)[C@H]1O
9,Active,CCNc1ncnc2c1ncn2[C@@H]1O[C@H](CO)[C@@H](O)[C@H]1O
10,Active,OC[C@H]1O[C@@H](n2cnc3c(OCC(F)(F)F)ncnc32)[C@H](O)[C@@H]1O

# Target: Stimulator of interferon genes protein (Homo sapiens) (UniProt Q86WV6)
# Test: Activation of human STING expressed in monocytes co-expressing IFN assessed as alkaline phosphatase secretion in presence of adenosine deaminase inhibitor erytftro-9-(2-hydroxy-3-nonyl) adenine by SEAP reporter gene assay
# Format: cell-based
row,Activity,SMILES
1,Active,CCOc1ncnc2c1ncn2[C@@H]1O[C@H](CO)[C@@H](O)[C@H]1O

# Target: Stimulator of interferon genes protein (Homo sapiens) (UniProt Q86WV6)
# Test: Activation of human STING expressed in monocytes co-expressing IFN assessed as alkaline phosphatase secretion in presence of adenosine kinase inhibitor 5-iodotubercidin by SEAP reporter gene assay
# Format: cell-based
row,Activity,SMILES
1,inactive,CCOc1ncnc2c1ncn2[C@@H]1O[C@H](CO)[C@@H](O)[C@H]1O
